# Source: PubChem BioAssay AID1552 (Sanford-Burnham Center for Chemical Genomics, 2009)
# The source made the active and inactive calls. How the calls were made is not given here.
# Target: Ubiquitin-conjugating enzyme E2 N (Homo sapiens) (UniProt P61088)
# Assay: UBE2N binders by NMR, biophysical, purified protein (AID 1552)
# Details: NMR binding to purified UBE2N
# Ubiquitin-conjugating enzyme E2 N (Homo sapiens), sequence (P61088 whole entry, looked up): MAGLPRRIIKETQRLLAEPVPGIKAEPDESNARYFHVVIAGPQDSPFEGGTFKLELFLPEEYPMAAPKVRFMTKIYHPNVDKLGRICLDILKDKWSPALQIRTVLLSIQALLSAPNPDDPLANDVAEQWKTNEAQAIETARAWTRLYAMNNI
row,Structure (SMILES),Kd
1,NC(=O)CSc1nc2ccccc2[nH]1,> 4 mM (inactive)
2,CC1(C)CC[C@]2(C(=O)O)CC[C@]3(C)C(=CCC4[C@@]5(C)CC[C@H](O)[C@@](C)(CO)C5CC[C@]43C)C2C1 (some centres not stated),> 4 mM (inactive)
3,CC(=O)Nc1nc(C)c(C(C)=O)s1,> 4 mM (inactive)
4,Cc1ccc(-c2nnn(CC(=O)O)n2)cc1,> 4 mM (inactive)
5,CS(=O)(=O)NC1CCN(Cc2ccccc2)CC1,> 4 mM (inactive)
6,COc1cccc2onc(N)c12,> 4 mM (inactive)
7,O=C(O)CCCN1CNC(=S)NC1,> 4 mM (inactive)
8,O=C(O)CCN1CCc2ccccc2C1c1ccncc1 (configuration not stated),> 4 mM (inactive)
9,O=C(O)C1CCCN1Cc1c[nH]c2ccccc12 (configuration not stated),> 4 mM (inactive)
10,COC(=O)C[C@H]1C(C)(C)C(=O)[C@@H]2CC3C4=CC(=O)O[C@@H](c5ccoc5)[C@]4(C)CCC3C1(C)C2=O (some centres not stated),> 4 mM (inactive)
11,Nc1nc(-c2ccc(Cl)cc2)nn1C(=O)c1cccnc1,> 4 mM (inactive)
12,C=C[C@@](C)(O)CCC1C(=C)CCC2[C@@](C)(CO)CCC[C@]12C (some centres not stated),> 4 mM (inactive)
13,Cc1cc(C)cc(C(=O)n2cnnc2N)c1,> 4 mM (inactive)
14,Cc1cc(C)n2nc(Cc3ccccc3)nc2n1,> 4 mM (inactive)
15,Nc1cc(F)ccc1-n1ccnc1,> 4 mM (inactive)
16,O=C1NC(=S)N/C1=C\c1ccccc1,> 4 mM (inactive)
17,Cc1cc(C(=O)Nc2sc(C)c(C)c2C#N)no1,> 4 mM (inactive)
18,CSc1cccc(NC(=O)c2c(Cl)cnn2C)c1,> 4 mM (inactive)
19,O=C(Nc1ccccc1)Nc1ccccn1,> 4 mM (inactive)
20,COc1ccccc1C(=O)Nc1ccccn1,> 4 mM (inactive)
21,C=C1C[C@]23C[C@@]1(O)CC[C@H]2[C@@]12C=C[C@H](O)C(C)(C(=O)O1)[C@H]2[C@@H]3C(=O)O,> 4 mM (inactive)
22,O=C(O)c1ccc2ccccc2n1,> 4 mM (inactive)
23,O=S1(=O)CCC(N2CCCCC2)C1 (configuration not stated),> 4 mM (inactive)
24,CNC(=O)Cn1c(=O)n(C)c2ccccc21,> 4 mM (inactive)

row,Structure (SMILES),Kd
1,Oc1ccccc1N1CCCC1,> 4 mM (inactive)
2,CC1(C)CC(=O)c2sc(N)nc2C1,> 4 mM (inactive)
3,Cc1ccccc1NC(=O)CC1SC(N)=NC1=O (configuration not stated),> 4 mM (inactive)
4,O=C(O)C1(S(=O)(=O)c2ccccc2)CC1,> 4 mM (inactive)
5,C=C[C@@](C)(O)CCC1C(=C)C[C@H](O)C2C(C)(C)CCCC12C (some centres not stated),> 4 mM (inactive)
6,CCCSc1nnc2[nH]c(=O)cc(N)n12,> 4 mM (inactive)
7,CCc1c(C(=O)N2CCOCC2)csc1C,> 4 mM (inactive)
8,Cc1ccc(C)n1/N=C1\NC(=O)CS1,> 4 mM (inactive)
9,CC1=NN(C(N)=S)C(C)(C)C1,> 4 mM (inactive)
10,Cc1nc(N)sc1C(=O)N/N=C/c1ccncc1,> 4 mM (inactive)
11,NS(=O)(=O)c1ccc(F)cc1,> 4 mM (inactive)
12,COC(=O)Nc1ccc2ncn(C)c(=O)c2c1,> 4 mM (inactive)
13,NC(=O)c1ccc(C(N)=O)cc1,> 4 mM (inactive)
14,O=C(Nc1ccccc1[N+](=O)[O-])c1ccc(=O)[nH]n1,> 4 mM (inactive)
15,Cc1cc(C)n(CC(=O)NC2CCCCC2)n1,> 4 mM (inactive)
16,Cn1c2c(c(=O)n(C)c1=O)CN(Cc1ccco1)CN2,> 4 mM (inactive)
17,N#Cc1ccccc1CSc1ccccn1,> 4 mM (inactive)
18,CNC(=O)c1cccc(NC(=S)NC)c1,> 4 mM (inactive)
19,O=C(O)CSCC(=O)Nc1cccc(O)c1,> 4 mM (inactive)
20,COc1ccc2cc1Oc1ccc(cc1)C[C@H]1c3cc(c(OC)cc3CCN1C)Oc1c(OC)c(OC)cc3c1[C@H](C2)N(C)CC3,> 4 mM (inactive)
21,Cc1ccc(-c2nc(-c3cccnc3)no2)c(C)c1,> 4 mM (inactive)
22,O=C1C=C(Nc2ccccc2O)c2ccccc2C1=O,> 4 mM (inactive)
23,COC(=O)CC1NC2CCCCC2NC1=O (configuration not stated),> 4 mM (inactive)
